# Assay results: patent US11746100B2 (GLOBAL BLOOD THERAPEUTICS, INC., priority 2020, dated 2023)
# Biological target: T1, human ferroportin (Homo sapiens, UniProt Q9NP59)
# T1 construct: luciferase reporter (read with the Nano-Glo Luciferase Assay System); expressed in transfected cells; host or cells: CHO cells, stably transfected, expression induced with doxycycline
# T1 sequence (Q9NP59 1-571): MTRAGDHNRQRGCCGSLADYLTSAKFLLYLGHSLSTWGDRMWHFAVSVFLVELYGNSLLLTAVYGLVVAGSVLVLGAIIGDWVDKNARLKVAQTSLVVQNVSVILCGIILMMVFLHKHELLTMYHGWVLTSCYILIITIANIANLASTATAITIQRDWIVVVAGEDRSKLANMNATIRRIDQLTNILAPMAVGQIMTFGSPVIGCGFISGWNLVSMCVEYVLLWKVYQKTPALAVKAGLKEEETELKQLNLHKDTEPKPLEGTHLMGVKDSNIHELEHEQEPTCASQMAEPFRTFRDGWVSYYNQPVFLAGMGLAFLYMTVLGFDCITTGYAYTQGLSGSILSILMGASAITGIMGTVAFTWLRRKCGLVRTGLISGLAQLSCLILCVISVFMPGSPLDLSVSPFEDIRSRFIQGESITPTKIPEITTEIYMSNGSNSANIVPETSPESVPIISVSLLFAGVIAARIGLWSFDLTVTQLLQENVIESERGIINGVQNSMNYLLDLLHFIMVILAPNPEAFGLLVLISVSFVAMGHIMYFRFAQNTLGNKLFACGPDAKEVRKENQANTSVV
# Assay: Biological in-vitro ferroportin internalization assay (luciferase reporter)
# Format: cell-based
# Details: average pEC50; stably-transfected CHO cell line expressing human ferroportin tagged to a luciferase reporter; 6 h incubation with test compound
# Method in brief: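 Stably transfected CHO cells expressing luciferase-tagged human ferroportin, plated 24 h with ferric ammonium citrate and induced with doxycycline for 24 h. Compounds incubated 6 h, then luciferase activity measured by Nano-Glo; average pEC50 reported.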
row,pEC50,Structure (SMILES)
1,6.3,"CN(C)CCOc1ccnc(-c2nc3c(c(N(C)CC(=O)NC(C)(C)C)n2)CCC3O)c1 (stereo not drawn) [Compound 494, N-tert-butyl-2-[(2-{4-[2-(dimethylamino)ethoxy]pyridin-2-yl}-7-hydroxy-5H,6H,7H-cyclopenta[d]pyrimidin-4-yl)(methyl)amino]acetamide]"
2,7.9,"CN(CC(=O)NC(C)(C)C)c1nc(-c2cc(OCCS(C)(=O)=O)ccn2)nc2c1CCC2 [Compound 507, N-tert-butyl-2-({2-[4-(2-methanesulfonylethoxy)pyridin-2-yl]-5H,6H,7H-cyclopenta[d]pyrimidin-4-yl}(methyl)amino)acetamide]"
3,7.4,"CN(CC(=O)NC1(C(F)(F)F)CC1)c1nc(-c2cc(OCC(C)(C)O)ccn2)nc2c1CCC2 [Compound 337, 2-({2-[4-(2-hydroxy-2-methylpropoxy)pyridin-2-yl]-5H,6H,7H-cyclopenta[d]pyrimidin-4-yl}(methyl)amino)-N-[1-(trifluoromethyl)cyclopropyl]aceta-mide]"
4,7.1,"CN(CC(=O)NC(C)(C)C)c1nc(-c2cc3c(cn2)OCO3)nc2c1CCC2 [Compound 226, N-tert-butyl-2-[(2-{2H-[1,3]dioxolo[4,5-c]pyridin-6-yl}-5H,6H,7H-cyclopenta[d]pyrimidin-4-yl)(methyl)amino]acetamide]"
5,7.6,"COc1ncc(NC(=O)CN(C)c2nc(-c3cc(OCC(C)(C)O)ccn3)nc3c2CCC3)cn1 [Compound 260, 2-({2-[4-(2-hydroxy-2-methylpropoxy)pyridin-2-yl]-5H,6H,7H-cyclopenta[d]pyrimidin-4-yl}(methyl)amino)-N-(2-methoxypyrimidin-5-yl)acetamide]"
6,7.5,"COCCOc1ccnc(-c2nc3c(c(N(C)CC(=O)Nc4ccc(OC)nc4)n2)CCC3)c1 [Compound 238, 2-({2-[4-(2-methoxyethoxy)pyridin-2-yl]-5H,6H,7H-cyclopenta[d]pyrimidin-4-yl}(methyl)amino)-N-(6-methoxypyridin-3-yl)acetamide]"
7,7.3,"Cc1ncc(NC(=O)CN(C)c2nc(-c3cc(OCCO)ccn3)nc3c2CCC3)cn1 [Compound 291, 2-({2-[4-(2-hydroxyethoxy)pyridin-2-yl]-5H,6H,7H-cyclopenta[d]pyrimidin-4-yl}(methyl)amino)-N-(2-methylpyrimidin-5-yl)acetamide]"
8,7.1,CN(CC(=O)Nc1cccnc1)c1nc(-c2cc3ccccc3cn2)nc2c1CCC2 [Compound 228]
9,7.7,"CN(CC(=O)NC(C)(C)C)c1nc(-c2cc(CCC(C)(C)O)ccn2)nc2c1CCC2 [Compound 481, N-tert-butyl-2-({2-[4-(3-hydroxy-3-methylbutyl)pyridin-2-yl]-5H,6H,7H-cyclopenta[d]pyrimidin-4-yl}(methyl)amino)acetamide]"
10,7.7,"CN(CC(=O)N1CCC(F)(F)CC1)c1nc(-c2cc(OCC(C)(C)O)ccn2)nc2c1CCC2 [Compound 391, 1-(4,4-difluoropiperidin-1-yl)-2-({2-[4-(2-hydroxy-2-methylpropoxy)pyridin-2-yl]-5H,6H,7H-cyclopenta[d]pyrimidin-4-yl}(methyl)amino)ethan-1-one]"
11,8,"CN(CC(=O)N1CCCC1)c1nc(-c2cc(OCC(C)(C)O)ccn2)nc2c1CCC2 [Compound 420, 2-({2-[4-(2-hydroxy-2-methylpropoxy)pyridin-2-yl]-5H,6H,7H-cyclopenta[d]pyrimidin-4-yl}(methyl)amino)-1-(pyrrolidin-1-yl)ethan-1-one]"
12,7.8,"COCCOc1ccnc(-c2nc3c(c(N(C)CC(=O)NC(C)(C)C)n2)CCC3)c1 [Compound 239, N-tert-butyl-2-({2-[4-(2-methoxyethoxy)pyridin-2-yl]-5H,6H,7H-cyclopenta[d]pyrimidin-4-yl}(methyl)amino)acetamide]"
13,6.6,"CN(C)CC(C)(C)Oc1ccnc(-c2nc3c(c(N(C)CC(=O)NC(C)(C)C)n2)CCC3)c1 [Compound 407, N-tert-butyl-2-{[2-(4-{[1-(dimethylamino)-2-methylpropan-2-yl]oxy}pyridin-2-yl)-5H,6H,7H-cyclopenta[d]pyrimidin-4-yl](methyl)amino}acetamide]"

# Second part, the molecule before the results:
row,Structure (SMILES),pEC50
1,"O=C1CCCCCN1c1nc(-c2ccccn2)nc2c1CCC2 [Compound 46, 1-[2-(pyridin-2-yl)-5H,6H,7H-cyclopenta[d]pyrimidin-4-yl]azepan-2-one]",5.1
2,"COc1ccc(NC2CCCN(c3nc(-c4ccccn4)nc4c3CCC4)C2)cc1 (stereo not drawn) [Compound 11, N-(4-methoxyphenyl)-1-[2-(pyridin-2-yl)-5H,6H,7H-cyclopenta[d]pyrimidin-4-yl]piperidin-3-amine]",6.3
3,"CN(CC(=O)NC(C)(C)C)c1nc(-c2ncccc2O)nc2c1CCC2 [Compound 181, N-tert-butyl-2-{[2-(3-hydroxypyridin-2-yl)-5H,6H,7H-cyclopenta[d]pyrimidin-4-yl](methyl)amino}acetamide]",6.5
4,"COc1ccnc(-c2nc3c(c(N(C)CC(=O)N[C@H]4CCC[C@@H]4O)n2)CCC3)c1 (stereo in doubt) [Compound 173, N-[(1S,2S)-2-hydroxycyclopentyl]-2-{[2-(4-methoxypyridin-2-yl)-5H,6H,7H-cyclopenta[d]pyrimidin-4-yl](methyl)amino}acetamide]",6.8
5,"CN(CC(=O)NC1(C)CCOC1)c1nc(-c2cn(C)cn2)nc2c1CCC2 (stereo not drawn) [Compound 147, 2-{methyl[2-(1-methyl-1H-imidazol-4-yl)-5H,6H,7H-cyclopenta[d]pyrimidin-4-yl]amino}-N-(3-methyloxolan-3-yl)acetamide]",6.7
6,"Cc1cccnc1-c1nc2c(c(N(C)CC(=O)NC(C)(C)C)n1)CCC2 [Compound 103, N-tert-butyl-2-{methyl[2-(3-methylpyridin-2-yl)-5H,6H,7H-cyclopenta[d]pyrimidin-4-yl]amino}acetamide]",6.4
7,"CCC(C)(O)COc1ccnc(-c2nc3c(c(N(C)CC(=O)NC(C)(C)C)n2)CCC3)c1 (stereo in doubt) [Compound 446, N-tert-butyl-2-[(2-{4-[(2R)-2-hydroxy-2-methylbutoxy]pyridin-2-yl}-5H,6H,7H-cyclopenta[d]pyrimidin-4-yl)(methyl)amino]acetamide]",8.2
8,"Cc1ccnc(-c2nc3c(c(N(C)CC(=O)NC(C)(C)C)n2)CCCC3)c1 [Compound 42, N-tert-butyl-2-{methyl[2-(4-methylpyridin-2-yl)-5,6,7,8-tetrahydroquinazolin-4-yl]amino}acetamide]",7.3
9,"CN(CC(=O)Nc1ccc(F)nc1)c1nc(-c2ccccn2)nc2c1CCC2 [Compound 127, N-(6-fluoropyridin-3-yl)-2-{methyl[2-(pyridin-2-yl)-5H,6H,7H-cyclopenta[d]pyrimidin-4-yl]amino}acetamide]",7.1
10,"CN(C)c1ccnc(-c2nc3c(c(N4CCCCCC4)n2)CCC3)c1 [Compound 13, 2-[4-(azepan-1-yl)-5H,6H,7H-cyclopenta[d]pyrimidin-2-yl]-N,N-dimethylpyridin-4-amine]",6.4
11,"Cc1ccnc(-c2nc3c(c(N(C)CC(=O)NC4CCCC4)n2)CCC3)c1 [Compound 64, N-cyclopentyl-2-{methyl[2-(4-methylpyridin-2-yl)-5H,6H,7H-cyclopenta[d]pyrimidin-4-yl]amino}acetamide]",7.8
